{"source": "patent US20220177476A1", "about": "“Crystal Forms of (S)-4-(8-amino-3-(1-(but-2-ynoyl)-pyrrolidin-2-yl)imidazo[1,5-a]pyrazin-1-yl)-n-(pyridin-2-yl)benzamide” (Acerta Pharma B.V., priority 2015, published 2022)", "key": {"[1]": {"assay": "Approximate solubility of Form I by stepwise dilution of a suspension", "assay_type": "physicochemical", "details": "thermodynamic from solid, read-out: Solubility [S, mg/mL]", "protocol": "Form I was also tested with respect to solubilities in various water-solvent mixtures and non-aqueous solvents. Solubility studies were conducted by a stepwise dilution of a suspension of about 10 mg of Form I in 0.1 mL of analytical grade solvent. Solubility values are estimated approximations and are subject to variable experimental error."}, "[2]": {"assay": "Aqueous solubility after equilibrating at 25° C. for three days (HPLC)", "assay_type": "physicochemical", "details": "water, 25° C., three days", "protocol": "Finally, Form II was tested with respect to solubilities in various water-solvent mixtures and non-aqueous solvents. […] High-performance liquid chromatography (HPLC) was used to determine the concentration of Form II in the filtered solution at approximately 14 μg/mL, which translates into a critical water activity (aw) of about 0.59."}, "[3]": {"assay": "Intrinsic dissolution rate (paddle over stationary disc)", "assay_type": "physicochemical", "protocol": "The intrinsic dissolution rate (IDR) was measured for Forms I and II of the free base of Formula (1). IDR was measured using a paddle over stationary disc equipped dissolution apparatus with concentration determined using liquid chromatographic analysis against a standard. […] Form I has an IDR of 6.8 mg/cm^2/min in simulated gastric fluid (SGF) (pH 1.2) and an IDR of 0.44 mg/cm^2/min in pH 2.5 HCl/NaCl buffer. Form II has an IDR of 5.4 mg/cm^2/min in SGF and an IDR of 0.35 mg/cm^2/min in pH 2.5 HCl/NaCl buffer."}, "[4]": {"assay": "Dynamic vapor sorption (DVS)", "assay_type": "physicochemical", "details": "DVS", "protocol": "A gravimetric vapor sorption study was run using a standard procedure. Samples were run using a dynamic vapor sorption (DVS) analyzer. Sample sizes were approximately 10 mg. A moisture adsorption-desorption isotherm was performed as outlined below."}, "[5]": {"assay": "Plasma exposure after single oral administration in fasted beagle dogs", "assay_type": "in vivo", "details": "nine fasted beagle dogs, single oral administration of 6 mg/kg, oral capsule", "protocol": "The plasma exposure of Forms I and II of the free base of Formula (1) were compared in nine fasted beagle dogs after a single oral administration of 6 mg/kg of either form using batches with a similar particle size distribution. The experiment was performed in 5 weekly phases, with the Form II phase last. […] There was a good in vitro in vivo correlation for the dissolution rates of Form 1 and Form II, and the performance of each form of Formula (1) when delivered by oral capsule to dogs."}, "[6]": {"assay": "Solubility of Form I by HPLC in solvents and water-solvent mixtures", "assay_type": "physicochemical", "details": "for solubility: organic solvent or mixture, thermodynamic from solid, read-out: Solubility (S, mg/mL)", "protocol": "The solubility of recrystallized Formula (1) Form I was tested in various water-solvent mixtures and non-aqueous solvents."}, "[7]": {"assay": "Human Phase 1 interaction study of calcium carbonate, omeprazole, or rifampin on Formula (1)", "assay_type": "in vivo", "details": "healthy adult subjects, acid reducing agents prior to administration"}, "[8]": {"assay": "Relative stability of solid forms (water activity, suspension equilibration, storage)", "assay_type": "physicochemical", "excerpt": "Critical water activity is a measure of the relative thermodynamic stability of Form I in comparison to the trihydrate Form II. […] Suspension equilibration experiments in ethanol-water mixtures, each having a different water activity, affirmed this conclusion. Water activities included in the experiments were maintained at: about 0.35 (ethanol-water ratio of 95:5, PP502-P32), about 0.53 (ethanol-water ratio of 9:1, PP502-P33) and about 0.77 (ethanol-water ratio of 7:3, PP502-P34).\nBecause the DVS results of Form II indicate reversible moisture sorption-desorption behavior (see above), tests were performed to confirm that storage of the dehydrated Form II sample (i.e., Form IV) at about 60% RH would again lead to the trihydrate form (Form II). […]"}}, "data": [{"smiles": "CC#CC(=O)N1CCC[C@H]1c1nc(-c2ccc(C(=O)Nc3ccccn3)cc2)c2c(N)nccn12", "note": "[Form I, (S)-4-(8-amino-3-(1-(but-2-ynoyl)pyrrolidin-2-yl)imidazo[1,5-α]pyrazin-1-yl)-N-(pyridin-2-yl)benzamide]", "values": [{"measurement": "solubility", "setting": "[1]; 2-propanol, organic solvent or mixture", "value": "< 1", "unit": "mg/mL"}, {"measurement": "solubility", "setting": "[1]; MEK saturated with water, organic solvent or mixture", "value": "26 to 30", "unit": "mg/mL"}, {"measurement": "solubility", "setting": "[1]; THF:water 9:1, organic solvent or mixture", "value": "> 50", "unit": "mg/mL"}, {"measurement": "solubility", "setting": "[1]; acetic acid, organic solvent or mixture", "value": "102 to 204", "unit": "mg/mL"}, {"measurement": "solubility", "setting": "[1]; acetic acid:MEK 1:9, organic solvent or mixture", "value": "63 to 95", "unit": "mg/mL"}, {"measurement": "solubility", "setting": "[1]; acetic acid:ethyl acetate 1:1, organic solvent or mixture", "value": "92 to 184", "unit": "mg/mL"}, {"measurement": "solubility", "setting": "[1]; acetic acid:ethyl acetate 1:9, organic solvent or mixture", "value": "60 to 90", "unit": "mg/mL"}, {"measurement": "solubility", "setting": "[1]; acetic acid:isopropanol 1:9, organic solvent or mixture", "value": "~4", "unit": "mg/mL"}, {"measurement": "solubility", "setting": "[1]; acetic acid:water 1:1, aqueous with cosolvent or surfactant or cyclodextrin", "value": "104 to 208", "unit": "mg/mL"}, {"measurement": "solubility", "setting": "[1]; acetone, organic solvent or mixture", "value": "~2", "unit": "mg/mL"}, {"measurement": "solubility", "setting": "[1]; acetone:water 4:1, organic solvent or mixture", "value": "26 to 31", "unit": "mg/mL"}, {"measurement": "solubility", "setting": "[1]; acetonitrile, organic solvent or mixture", "value": "< 1", "unit": "mg/mL"}, {"measurement": "solubility", "setting": "[1]; ethanol, organic solvent or mixture", "value": "~3", "unit": "mg/mL"}, {"measurement": "solubility", "setting": "[1]; ethanol:water 1:1, aqueous with cosolvent or surfactant or cyclodextrin", "value": "~6", "unit": "mg/mL"}, {"measurement": "solubility", "setting": "[1]; ethanol:water 95:5, organic solvent or mixture", "value": "~8", "unit": "mg/mL"}, {"measurement": "solubility", "setting": "[1]; ethyl acetate, organic solvent or mixture", "value": "< 1", "unit": "mg/mL"}, {"measurement": "solubility", "setting": "[1]; formic acid, organic solvent or mixture", "value": "97 to 194", "unit": "mg/mL"}, {"measurement": "solubility", "setting": "[1]; methanol, organic solvent or mixture", "value": "~14", "unit": "mg/mL"}, {"measurement": "solubility", "setting": "[1]; methanol:water 9:1, organic solvent or mixture", "value": "~15", "unit": "mg/mL"}, {"measurement": "solubility", "setting": "[1]; organic solvent or mixture, 2-butanone, MEK", "value": "< 1", "unit": "mg/mL"}, {"measurement": "solubility", "setting": "[1]; organic solvent or mixture, N,N-dimethylformamide, DMF", "value": "49 to 65", "unit": "mg/mL"}, {"measurement": "solubility", "setting": "[1]; organic solvent or mixture, N-methyl-2-pyrrolidone, NMP", "value": "39 to 49", "unit": "mg/mL"}, {"measurement": "solubility", "setting": "[1]; organic solvent or mixture, dichloromethane, DCM", "value": "36 to 43", "unit": "mg/mL"}, {"measurement": "solubility", "setting": "[1]; organic solvent or mixture, dimethyl sulfoxide, DMSO", "value": "39 to 49", "unit": "mg/mL"}, {"measurement": "solubility", "setting": "[1]; organic solvent or mixture, ethanol:water 9:1 at 60° C.", "value": "> 60", "unit": "mg/mL"}, {"measurement": "solubility", "setting": "[1]; organic solvent or mixture, methanol:MEK 1:1 at reflux", "value": "> 90", "unit": "mg/mL"}, {"measurement": "solubility", "setting": "[1]; organic solvent or mixture, tetrahydrofuran, THF", "value": "~5", "unit": "mg/mL"}, {"measurement": "solubility", "setting": "[1]; trifluoroethane, organic solvent or mixture", "value": "97 to 194", "unit": "mg/mL"}, {"measurement": "solid residue after aqueous solubility test (PXRD)", "setting": "[2]", "value": "Form I was retained"}, {"measurement": "increase in IDR relative to Form II", "setting": "[3]; at both conditions (SGF and pH 2.5 buffer)", "value": "~26", "unit": "%"}, {"measurement": "intrinsic dissolution rate (IDR)", "setting": "[3]; pH 2.5 HCl/NaCl buffer", "value": 0.44, "unit": "mg/cm^2/min"}, {"measurement": "intrinsic dissolution rate (IDR)", "setting": "[3]; simulated gastric fluid (SGF) (pH 1.2)", "value": 6.8, "unit": "mg/cm^2/min"}, {"measurement": "hygroscopicity (DVS), in words", "setting": "[4]", "value": "not hygroscopic"}, {"measurement": "total weight gain observed between 0% RH and 80% RH", "setting": "[4]", "value": "about 0.17%"}, {"measurement": "water content at 50% RH", "setting": "[4]", "value": "approximately 0.25%"}, {"measurement": "water absorption within the timeframe of the test", "setting": "[4]; at 95% RH", "value": "less than 0.3%"}, {"measurement": "hygroscopicity according to the European Pharmacopoeia (EP) classification", "setting": "[4]; weight increase at 80% RH", "value": "non-hygroscopic (non-hygroscopic: <0.2%)"}, {"measurement": "maximum water content (saturation) at about 95% RH", "setting": "[4]; listed as recrystallized Formula (1)", "value": "approximately 0.5%"}, {"measurement": "exposure", "setting": "[5]", "value": "higher exposure in the beagle than Form II"}, {"measurement": "Solubility (S, mg/mL)", "setting": "[6]; 1-propanol, 25° C.", "value": 4.0, "unit": "mg/mL"}, {"measurement": "Solubility (S, mg/mL)", "setting": "[6]; ethyl acetate, 25° C.", "value": 1.5, "unit": "mg/mL"}, {"measurement": "solubility", "setting": "[6]; 1-propanol, 5° C.", "value": 3.4, "unit": "mg/mL"}, {"measurement": "solubility", "setting": "[6]; 1-propanol, 60° C.", "value": 14.4, "unit": "mg/mL"}, {"measurement": "solubility", "setting": "[6]; 1-propanol, r.t.", "value": 4.7, "unit": "mg/mL"}, {"measurement": "solubility", "setting": "[6]; 2-propanol, 25° C.", "value": 1.3, "unit": "mg/mL"}, {"measurement": "solubility", "setting": "[6]; MEK, 25° C.", "value": 3.7, "unit": "mg/mL"}, {"measurement": "solubility", "setting": "[6]; THF, 25° C.", "value": 20.4, "unit": "mg/mL"}, {"measurement": "solubility", "setting": "[6]; acetone at RFT", "value": 10, "unit": "mg/mL"}, {"measurement": "solubility", "setting": "[6]; acetone, 25° C.", "value": 4.1, "unit": "mg/mL"}, {"measurement": "solubility", "setting": "[6]; ethanol, 5° C.", "value": 3.6, "unit": "mg/mL"}, {"measurement": "solubility", "setting": "[6]; ethanol, 25° C.", "value": 4.4, "unit": "mg/mL"}, {"measurement": "solubility", "setting": "[6]; ethanol, 50° C.", "value": 10.2, "unit": "mg/mL"}, {"measurement": "solubility", "setting": "[6]; ethanol-water 9:1, 25° C.", "value": 23.7, "unit": "mg/mL"}, {"measurement": "solubility", "setting": "[6]; ethanol-water 96:4, 0° C.", "value": 6.7, "unit": "mg/mL"}, {"measurement": "solubility", "setting": "[6]; ethanol-water 96:4, 25° C.", "value": 10, "unit": "mg/mL"}, {"measurement": "solubility", "setting": "[6]; ethanol-water 96:4, 60° C.", "value": 24.7, "unit": "mg/mL"}, {"measurement": "solubility", "setting": "[6]; methanol, 25° C.", "value": 19.9, "unit": "mg/mL"}, {"measurement": "exposure after treatment with acid reducing agents", "setting": "[7]", "value": "significant decreases in exposure"}, {"measurement": "form recovered after suspension equilibration in methanol", "setting": "[8]; 5° C., methanol, mixture of Forms (I), VI, and VII, five days", "value": "pure Form I was recovered"}, {"measurement": "relative thermodynamic stability of Form I and Form II", "setting": "[8]; room temperature, depending on water activity", "value": "Below an aw of about 0.59, Form I is more stable"}]}]}
